Experimental data published in PubChem BioAssay AID2060607 (Molecular Pharmacology Branch, DTP, NCI, 2025).

Tested on: 876862-298-R-J1-PDC complex spheroids, viability % test/control
Assay: Anticancer human tumor 876862-298-R-J1-PDC patient-derived endometrial carcinoma cell line growth inhibition [CLK]
Conditions: for IC50: curve of first compound; for viability, T/C: stronger effect = lower value
Method in brief: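 Patient-derived tumor cells grown as complex spheroids with HUVEC endothelial cells and mesenchymal stem cells, treated with drug combinations. Concentrations descend in half-log steps from near clinical Cmax, or from 10 microM if Cmax unknown.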

[1] = second compound 0.0316 µM, first compound 0.0316 µM
[2] = second compound 0.0316 µM, first compound 0.1 µM
[3] = second compound 0.0316 µM, first compound 0.316 µM
[4] = second compound 0.0316 µM, first compound 1 µM
[5] = second compound 0.0316 µM, first compound 3.16 µM
[6] = second compound 0.0316 µM, first compound 10 µM
[7] = second compound 0.1 µM, first compound 0.0316 µM
[8] = second compound 0.1 µM, first compound 0.1 µM
[9] = second compound 0.1 µM, first compound 0.316 µM
[10] = second compound 0.1 µM, first compound 1 µM
[11] = second compound 0.1 µM, first compound 3.16 µM
[12] = second compound 0.1 µM, first compound 10 µM
[13] = second compound 0.316 µM, first compound 0.0316 µM
[14] = second compound 0.316 µM, first compound 0.1 µM
[15] = second compound 0.316 µM, first compound 0.316 µM
[16] = second compound 0.316 µM, first compound 1 µM
[17] = second compound 0.316 µM, first compound 3.16 µM
[18] = second compound 0.316 µM, first compound 10 µM
[19] = second compound 1 µM, first compound 0.0316 µM
[20] = second compound 1 µM, first compound 0.1 µM
[21] = second compound 1 µM, first compound 0.316 µM
[22] = second compound 1 µM, first compound 1 µM
[23] = second compound 1 µM, first compound 3.16 µM
[24] = second compound 1 µM, first compound 10 µM
[25] = second compound 3.16 µM, first compound 0.0316 µM
[26] = second compound 3.16 µM, first compound 0.1 µM
[27] = second compound 3.16 µM, first compound 0.316 µM
[28] = second compound 3.16 µM, first compound 1 µM
[29] = second compound 3.16 µM, first compound 3.16 µM
[30] = second compound 3.16 µM, first compound 10 µM
[31] = second compound 10 µM, first compound 0.0316 µM
[32] = second compound 10 µM, first compound 0.1 µM
[33] = second compound 10 µM, first compound 0.316 µM
[34] = second compound 10 µM, first compound 1 µM
[35] = second compound 10 µM, first compound 3.16 µM
[36] = second compound 10 µM, first compound 10 µM
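Further: spheroids exposed to drugs for 7 days before readout.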
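Wherever viability, T/C is given: 100% = DMSO vehicle control wells.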

CC1(C)CCC(CN2CCN(c3ccc(C(=O)NS(=O)(=O)c4ccc(NCC5CCOCC5)c([N+](=O)[O-])c4)c(Oc4cnc5[nH]ccc5c4)c3)CC2)=C(c2ccc(Cl)cc2)C1 + CNC(=O)c1ccc(Nc2nc(OC3CCCC3)c3c(-c4ccc5nc(C)oc5c4)c[nH]c3n2)c(OC)c1 was tested, and the IC50 (second compound 0.0316 µM) was 5.4 µM, the IC50 (second compound 0.1 µM) was 0.473 µM and the IC50 (second compound 0.316 µM) was less than 0.0316 µM. It also gave an IC50 (second compound 1 µM) of less than 0.0316 µM, an IC50 (second compound 3.16 µM) of less than 0.0316 µM and an IC50 (second compound 10 µM) of less than 0.0316 µM. The viability, T/C [1] was 69.5%, the viability, T/C [2] was 88.6% and the viability, T/C [3] was 83%. It also gave a viability, T/C [4] of 90.6%, a viability, T/C [5] of 86.1% and a viability, T/C [6] of 11.2%. It also gave a viability, T/C [7] of 48.2%, a viability, T/C [8] of 52.2% and a viability, T/C [9] of 52.3%. It also gave a viability, T/C [10] of 49.2%, a viability, T/C [11] of 39.2% and a viability, T/C [12] of 11.8%. It also gave a viability, T/C [13] of 45.1%, a viability, T/C [14] of 39.5% and a viability, T/C [15] of 47.9%. For the same compound, the viability, T/C [16] was 46.1%, the viability, T/C [17] was 35.9% and the viability, T/C [18] was 9.32%. The viability, T/C [19] was 37.7%, the viability, T/C [20] was 34.4% and the viability, T/C [21] was 32.3%. It also gave a viability, T/C [22] of 33.2%, a viability, T/C [23] of 26.4% and a viability, T/C [24] of 9.54%. For the same compound, the viability, T/C [25] was 23.6%, the viability, T/C [26] was 23.8% and the viability, T/C [27] was 25.4%. The viability, T/C [28] was 21.6%, the viability, T/C [29] was 19.4% and the viability, T/C [30] was 5.35%. For the same compound, the viability, T/C [31] was 19.9%, the viability, T/C [32] was 19.8% and the viability, T/C [33] was 17.6%. It also gave a viability, T/C [34] of 20.3%, a viability, T/C [35] of 14.9% and a viability, T/C [36] of 5.66%.
CC1COCCN1c1cc(C2(S(C)(=N)=O)CC2)nc(-c2ccnc3[nH]ccc23)n1 (centres undefined) + CNC(=O)c1ccc(Nc2nc(OC3CCCC3)c3c(-c4ccc5nc(C)oc5c4)c[nH]c3n2)c(OC)c1 was tested, and the IC50 (second compound 0.0316 µM) was 2.2 µM, the IC50 (second compound 0.1 µM) was less than 0.0316 µM and the IC50 (second compound 0.316 µM) was less than 0.0316 µM. The IC50 (second compound 1 µM) was less than 0.0316 µM, the IC50 (second compound 3.16 µM) was less than 0.0316 µM and the IC50 (second compound 10 µM) was less than 0.0316 µM. For the same compound, the viability, T/C [1] was 70.2%, the viability, T/C [2] was 84.7% and the viability, T/C [3] was 75.5%. It also gave a viability, T/C [4] of 69.8%, a viability, T/C [5] of 40.9% and a viability, T/C [6] of 22.5%. The viability, T/C [7] was 47.2%, the viability, T/C [8] was 50.9% and the viability, T/C [9] was 42.7%. It also gave a viability, T/C [10] of 44.6%, a viability, T/C [11] of 24.3% and a viability, T/C [12] of 15%. It also gave a viability, T/C [13] of 43.8%, a viability, T/C [14] of 41.5% and a viability, T/C [15] of 39.1%. For the same compound, the viability, T/C [16] was 30%, the viability, T/C [17] was 20.5% and the viability, T/C [18] was 11.4%. For the same compound, the viability, T/C [19] was 34.4%, the viability, T/C [20] was 37.4% and the viability, T/C [21] was 28.3%. For the same compound, the viability, T/C [22] was 22.6%, the viability, T/C [23] was 13% and the viability, T/C [24] was 6.42%. For the same compound, the viability, T/C [25] was 29%, the viability, T/C [26] was 21% and the viability, T/C [27] was 17.2%. For the same compound, the viability, T/C [28] was 11.7%, the viability, T/C [29] was 8.18% and the viability, T/C [30] was 3.92%. It also gave a viability, T/C [31] of 22.4%, a viability, T/C [32] of 19.5% and a viability, T/C [33] of 14.1%. For the same compound, the viability, T/C [34] was 12.6%, the viability, T/C [35] was 7.52% and the viability, T/C [36] was 3.99%.
